Measurements reported in US6020336A, “Indole and indazole compounds” (priority 1997, dated 2000).
Where a name gives a salt, the structure may show the parent alone.

Tests used:
[1] = test system: saphenous vein of rabbits; assay: Contraction of the saphenous vein isolated from rabbit; details: Oryctolagus cuniculus, rabbit saphenous vein rings; for Emax: % relative to the maximum effect induced by KCl (100 mM), read-out: maximum response (contraction of the saphenous vein); for EC50: cumulative doses 10^-9 to 10^-4 M, 37° C., tension as % of KCl maximum
Description: (§1) The activity of the compounds of the invention has been evaluated in a pharmacological test that measures their potential for contracting the saphenous vein isolated from a dog or rabbit, as described by Humphrey et al. (Br. J. Pharmacol., 94, 1123, 1988).
(§2) The test are carried out on saphenous veins of dogs (10-25 kg) or of rabbits (2-3 kg) which have ben anaesthetised with pentobarbital (30 mg/kg i.v.). The saphenous veins are removed quickly and cut into rings. The rings are mounted between two hooks in vessels maintained at 37° C. containing physiological saline (composition in mM:NaCl 118.3; KCl 4.7; CaCl2 2.5; MgSO4 1.2; KH2 PO4 1.2; NaHCO3 25.0; Ca-EDTA 0.026 and glucose 11.1).
(§3) A mixture of 95% O2 --5% CO2 is bubbled through the physiological saline solution. The lower hook consists of the fixed point whilst the upper hook is connected to an isometric force sensor. The tissues are subjected to a base tension of 1.5 grammes (dog) and of 1 gramme (rabbit). The test pharmacological substances are prepared immediately prior to use; they are solubilised in water or in dimethyl sulphoxide.
(§4) After being mount, the preparations are left to rest for 60 minutes, rinsing operations being carried out every 30 minutes. The organ is then placed in the presence of phenoxybenzamine (5×10^-8 M) for 20 minutes. That agent is eliminated by a number of successive washing operations over the course of 45 minutes. After readjustment of the base tension, contraction is brought about by KCl (100 mM). After washing and return to the base line, contraction is induced by 5-hydroxytryptamine (10^-5 M).
(§5) After washing and return to the base line, a dose/response curve for the pharmacological substances is produced by the addition of cumulative doses (10^-9 to 10^-4 M).
(§6) The test enables the 50% effective concentration (EC50) of the compounds of the invention to be determined.
The EC50 is calculated in the following manner: the tension values are first converted into percentages relative to the maximum effect induced by KCl. The effective concentration 50% (ED50) is determined by non-linear regression according to the model of the law of mass action of Michaelis-Menten.

saphenous vein of dogs = assay: Contraction of the saphenous vein isolated from dog; details: Canis lupus familiaris, dog saphenous vein rings
Description: as §1, §2, §3, §4, §5, §6
The EC50 is calculated in the following manner: the tension values are first converted into percentages relative to the maximum effect induced by KCl. […]

| EC50 [1] | EC50 (saphenous vein of dogs; cumulative doses 10^-9 to 10^-4 M, 37° C., tension as % of KCl maximum) | Compound | Emax [1] | Emax at 100 µM (saphenous vein of dogs; 100 μM, % relative to the maximum effect induced by KCl (100 mM), read-out: maximum contraction at a concentration of 100 μM) | Emax (saphenous vein of dogs; % relative to the maximum effect induced by KCl (100 mM), read-out: maximum response (contraction of the saphenous vein)) |
| --- | --- | --- | --- | --- | --- |
| 300 nM | – | COc1cncnc1N1CCN(CCCn2ccc3ccc(-n4cnnc4)cc32)CC1 [Example 5, 1-{3-[4-(5-Methoxypyrimidin-4-yl)piperazin-1-yl]propyl}-6-([1,2,4]-triazol-4-yl)indole dihydrochloride] | 75% | 6% | – |
| 120 nM | 170 nM | CN(C)CCn1ncc2ccc(-n3cnnc3)cc21 [Example 6, 1-(Dimethylaminoethyl)-6-([1,2,4]triazol-4-yl)indazole dihydrochloride] | 87% | – | 47% |
